Tests used:
INS-1E cells = assay: Autophagic flux assay; assay type: cell-based; details: 5 μM, 24 h, ± 100 nM Bafilomycin A1
Protocol: INS-1E cells were incubated for 24 h with or without 5 μM test material in the presence or absence of 100 nM Bafilomycin A1 (InvivoGen #tlrl-baf1) during the last 60 min of incubation. Levels of LC3II were determined by Western blot analysis and quantified.

[1] = test system: primary human hepatocytes; assay: [1,2-14C] acetate incorporation into total lipids; assay type: cell-based; details: 0.625, 1.25, 2.5 or 5 μM
Protocol: Primary human hepatocytes (65,000-130,000 cells/well in 24-well dishes) were treated with vehicle control, 0.625, 1.25, 2.5 or 5 μM test material in serum free Williams' medium E, 2 hours, before addition of 0.25 μCi [1,2-^14C]-acetate/well for an additional 4 hours. 200 μl 0.5% trypsin was used to detach the cells before addition of 800 μl chloroform/methanol (2:1) and 500 μl 4 mM MgCl2. The samples were vortexed and spun at 14,000 rpm, 2 minutes before discarding the aqueous layer. The procedure was repeated twice, first with 700 μl chloroform/methanol (2:1) and 500 μl 4 mM MgCl2 and then 400 μl chloroform/methanol (2:1) and 500 μl 4 mM MgCl2. The organic phase was transferred into a scintillation vial and evaporated to dryness by a stream of nitrogen. The residue was dissolved in 3 ml liquid scintillation cocktail (Optiphase HiSafe 3, Perkin Elmer #1200.437) and 14 C determined for 1 minute in a Wallac 1414 beta counter (Perkin Elmer). Before lipid extraction, 10 μl samples were used to determine protein concentration. 14 C-values were normalised to cellular protein concentration.

hIAPPtg DIO mice = assay: Prevention of diabetes in hIAPPtg DIO mice (oral gavage, 6 w); assay type: in vivo; details: 100 mg/kg/day gavage, 6 w HFD
CBA mice on HFD = assay: In vivo glucose uptake ([18F]-FDG PET); details: 2 mg/g in HFD, 2 w, vs HFD
Protocol: Mice were allowed to be awake and freely moving around in their cage after injection. After 180 minutes, mice were sacrificed under deep isoflurane anaesthesia and blood was removed by retrograde perfusion of PBS via the aorta. When the liver was pale, tissues were collected and scanned for a 10 minutes static uptake (nanoScan PET/CT, Mediso, Hungary). The tissues were then scanned ex vivo scanning to assess uptake in the isolated tissues. Images were reconstructed to a 0.4×0.4 mm resolution with a 3D iterative reconstruction with 4 iterations and 4 subsets (Mediso Tera-Tomo 3D), covering 98 mm axial distance, employing spike filter, delayed-window random correction, scatter and CT-based attenuation corrections. Volumes of interest were manually delineated over each tissue using imlook4d (www.dicom-port.com). Tracer uptake was quantified as standardised uptake values (SUV), using the formula: SUV=C/(l/m); with C being the measured tissue activity concentration (Bq/mL), l the injected dose (Bq), and m the body weight (g). C and l are decay corrected to the same time.

[2] = test system: obese, diabetic hIAPPtg mice; assay: Diet switch in hIAPPtg mice: HFD 9 w then test material-HFD (2 mg/g) 7 w; assay type: in vivo
Protocol: 10-11 weeks old male hIAPPtg; CBA mice and wild type littermates were fed HFD for 9 weeks. After 9 weeks mice were either sacrificed or randomised into two groups either continuing on HFD or switched to test material-HFD (2 mg/g) for an additional 7 weeks.
(§1) Food intake was measured weekly by giving each cage 200 g pellet. After one week, the amount of pellets consumed were calculated and adjusted according to the number of animals/cage. Body weight was measured weekly. Body composition was assessed using EchoMRI.
Islets amyloid was quantification was done on pancreatic tissues isolated from hIAPPtg mice on HFD for 16 weeks (n=7 mice/n=69 islets) and hIAPPtg mice on HFD for 9 weeks then switched to test material-HFD (2 mg/g) for 7 weeks (n=5 mice/n=48 islets). Isolated pancreases was direct frozen, sectioned, and amyloid content quantified by staining with Thioflavin-S as previously described (Reference 2). For ex vivo analyses, islets were isolated by collagenase digestion of the pancreas (Reference 1) and cultured in RPMI medium 1640 (GIBCO #11879-0) supplemented with 11.1 or 22.2 mM glucose (GIBCO #A24940-01), 1% fetal bovine serum (GIBCO #10500), 50 U; μg/ml Pen/Strep (Gibco #15140-122), 10 mM Hepes (Umeå University, Laboratory medicine), 1 mM sodium pyruvate (GIBCO #11360-039) and 0.1% 2-Mercaptoethanol (Sigma #M3148). 0, 2.5, 5.0, and 10 μM test material were added from day 0 of culture. For assessing the effect of autophagy inhibition, 3-Methyladenine (3-MA, Aldrich #M9281), 5 μM, was added from day 0 of culture in combination with test material, 5 μM. The control contained DMSO 1:2000. Medium and compounds were changed every second day. After 92 hours of treatment islets were embedded, sectioned and amyloid content quantified by staining with Thioflavin-S as previously described (Reference 2). A minimum of 3 independent experiments was evaluated.

[3] = test system: Wi-38 human lung fibroblast cells; assay: Determination of cellular ATP content; assay type: cell-based; details: 16 hours; dose-dependent
Protocol: Wi-38 human lung fibroblast cells were stimulated with test material for 16 hours. Thereafter ATP content were determined with the ATP bioluminescence assay kit HS II (Roche Applied Science #11699709001) according to manufacturer's recommendations. The ATP data were normalised to cellular protein determined using BCA protein assay kit (Pierce #23225).

hIAPPtg mice = assay: Diet switch in hIAPPtg mice: HFD 9 w then test material-HFD (0.8 mg/g) 7 w; assay type: in vivo
Protocol: as §1
The potent effect of the test material on established diabetes and obesity in hIAPPtg mice on HFD formulated with 2 mg/g test material leaves open the possibility that the beneficial metabolic effects (FIG. 4, F-H) observed in these mice are secondary to the effects on weight and body fat. To address this issue, we therefore performed diet switch experiments on hIAPPtg mice using a lower test material-HFD concentration, where mice were fed HFD for 9 w and then either continued on HFD or switched to test material-HFD (0.8 mg/g) for 7 w.

With `O=C(Nc1nc(=O)n(Cc2ccc(Cl)cc2)s1)c1ccc(Cl)cc1` [test material, 4-chloro-N-[2-[(4-chlorophenyl)methyl]-3-oxo-1,2,4-thiadiazol-5-yl]benzamide] the “autophagic flux (LC3II)” value (INS-1E cells) was “enhanced autophagic flux”, the lipid synthesis [1] was “dose-dependently suppressed lipid synthesis” and the “HOMA-IR and Matsuda index (systemic insulin resistance)” value (hIAPPtg DIO mice) was “suppressed the development of systemic insulin resistance”. For the same molecule, the “i.p. and oral glucose-tolerance tests” value (hIAPPtg DIO mice) was “prevented the development of glucose intolerance and compensatory hyperinsulinemia”, the “6 h fasted blood glucose” value (hIAPPtg DIO mice; vs vehicle) was “averted the increase” and the “6 h fasted plasma insulin levels” value (hIAPPtg DIO mice; vs vehicle) was “averted the increase”. The “[18F]-FDG uptake in calf and thigh muscle” value (CBA mice on HFD) was “significant increase”, the “[18F]-FDG uptake in heart” value (CBA mice on HFD) was “significant increase” and the body fat ([2]; 2 mg/g) was “induced body weight and body fat loss”. The body weight ([2]; 2 mg/g) was “induced body weight and body fat loss”, the “amount of islet amyloid formed” value ([2]; 2 mg/g for 7 w, vs continued HFD) was “significantly reduced” and the “established hyperglycemia (fasted blood glucose)” value ([2]; 2 mg/g, 6 w after the switch) was “reverted”. The “established hyperinsulinemia (fasted insulin)” value ([2]; 2 mg/g, 6 w after the switch) was “reverted”, the “established insulin resistance (HOMA-IR)” value ([2]; 2 mg/g, 6 w after the switch) was “reverted” and the ATP/protein ratio [3] was “increased”. The body fat (hIAPPtg mice; 0.8 mg/g for 7 w) was “did not provoke body weight or body fat loss”, the body weight (hIAPPtg mice; 0.8 mg/g for 7 w) was “did not provoke body weight or body fat loss” and the HOMA-IR (hIAPPtg mice; 0.8 mg/g, 6 w after the switch) was “significantly reduced”. For the same molecule, the glucose levels (hIAPPtg mice; 0.8 mg/g, 6 w after the switch) was “significantly reduced” and the insulin levels (hIAPPtg mice; 0.8 mg/g, 6 w after the switch) was “significantly reduced”.
